Reference: ChEMBL document CHEMBL5370583, “Cytotoxic Ergosteroids from a Strain of the Fungus Talaromyces adpressus” (J Nat Prod, 2023)
pIC50: −log10 of the molar value. Active and inactive are the calls of the source. The rule behind the calls is not given here.

What was measured:
A549 = experiment: Cytotoxicity against human A549 cells assessed as cell growth inhibition by MTT assay; type: functional, cell-based
SU-DHL-2 [1] = experiment: Cytotoxicity against human SUDHL2 cells assessed as cell growth inhibition by MTT assay; type: functional, cell-based
HL-60 = experiment: Cytotoxicity against human HL-60 cells assessed as cell growth inhibition by MTT assay; type: functional, cell-based
[2] = Cytotoxicity against human […] cells assessed as cell growth inhibition by MTT assay; type: functional, cell-based
HepG2 = experiment: Cytotoxicity against human HepG2 cells assessed as cell growth inhibition by MTT assay; type: functional, cell-based
[3] = Immunosuppressive activity in C57BL/6J mouse B-lymphocyte assessed as inhibition of LPS-induced cell proliferation at 0.3125 to 40 uM incubated for 72 hrs by flow cytometry analysis; type: functional, cell-based; conditions: dose 0.3125-40 µM
SU-DHL-2 [4] = experiment: Induction of apoptosis in human SUDHL2 cells assessed as viable cells at 10 uM measured by Annexin V-FITC/PI staining based flow cytometry assay (reference value: 92.2%); type: functional; conditions: read-out: Activity
SU-DHL-2 [5] = experiment: Induction of apoptosis in human SUDHL2 cells assessed as viable cells at 2 uM measured by Annexin V-FITC/PI staining based flow cytometry assay (reference value: 92.2%); type: functional; conditions: read-out: Activity
SU-DHL-2 [6] = experiment: Induction of apoptosis in human SUDHL2 cells assessed as early apoptotic cells at 10 uM measured by Annexin V-FITC/PI staining based flow cytometry assay (reference value: 4.52%); type: functional
SU-DHL-2 [7] = experiment: Induction of apoptosis in human SUDHL2 cells assessed as necrotic cells at 2 uM measured by Annexin V-FITC/PI staining based flow cytometry assay (reference value: 0.23%); type: functional
SU-DHL-2 [8] = experiment: Induction of apoptosis in human SUDHL2 cells assessed as late apoptotic cells at 2 uM measured by Annexin V-FITC/PI staining based flow cytometry assay (reference value: 3.10%); type: functional
SU-DHL-2 [9] = experiment: Induction of apoptosis in human SUDHL2 cells assessed as early apoptotic cells at 2 uM measured by Annexin V-FITC/PI staining based flow cytometry assay (reference value: 4.52%); type: functional
SU-DHL-2 [10] = experiment: Induction of apoptosis in human SUDHL2 cells assessed as necrotic cells at 10 uM measured by Annexin V-FITC/PI staining based flow cytometry assay (reference value: 0.23%); type: functional
SU-DHL-2 [11] = experiment: Induction of apoptosis in human SUDHL2 cells assessed as late apoptotic cells at 10 uM measured by Annexin V-FITC/PI staining based flow cytometry assay (reference value: 3.10%); type: functional
B-cell line = experiment: Immunosuppressive activity in C57BL/6J mouse B-lymphocyte assessed as inhibition of LPS-induced cell proliferation incubated for 72 hrs by flow cytometry analysis; type: functional, cell-based

Structure (SMILES) | pIC50 (A549) | pIC50 (SU-DHL-2 [1]) | pIC50 (HL-60) | pIC50 [2] | pIC50 (HepG2) | inhibition [3] | also measured
CC(=O)O[C@@H]1C[C@]2(C)[C@@H]([C@H](C)/C=C/[C@H](C)C(C)(C)O)CC[C@H]2C2=CC(=O)[C@H]3CC(=O)CC[C@]3(C)[C@H]21 | 4.66 | 4.72 | 4.96 | 5.04 | 4.60 | inactive | 
COc1cc([C@@H]2c3cc4c(cc3[C@@H](O[C@@H]3O[C@@H]5CO[C@@H](C)O[C@H]5[C@H](O)[C@H]3O)[C@H]3COC(=O)[C@H]23)OCO4)cc(OC)c1O [ETOPOSIDE] | 5.00 | 5.68 | 5.68 | 4.28 | 4.68 |  | 
CC(C)[C@@H](C)/C=C/[C@@H](C)[C@H]1CC(=O)C2=C3[C@H](O)[C@H]4O[C@]45C[C@@H](O)CC[C@]5(C)[C@@]3(O)CC[C@@]21C |  |  |  |  |  | inactive | 
COC1(OC)CC[C@@]2(C)[C@H](C1)C(=O)C=C1[C@@H]2[C@H](OC(C)=O)C[C@]2(C)[C@@H]([C@H](C)/C=C/C(C)C(C)(C)O)CC[C@@H]12 (single isomer, unassigned) | 4.89 | 4.60 | 5.08 | 4.96 | 4.54 | inactive | 
C=C(CC[C@@H](C(=O)O)[C@H]1CC[C@H]2C3=C[C@@H](O)[C@@]45O[C@@H]4[C@H](O)[C@@H]4O[C@@H]4[C@]5(C)[C@H]3CC[C@]12C)C(C)C | < 4.40 | < 4.40 | < 4.40 | < 4.40 | < 4.40 | inactive | 
CO[C@@H]1C=C2C=CC3=C4C(=O)C[C@H]([C@H](C)/C=C/[C@H](C)C(C)C)[C@@]4(C)CC[C@]3(O)[C@@]2(C)CC1 | < 4.40 | < 4.40 | 4.60 | < 4.40 | < 4.40 | inactive | 
CC(C)[C@@H](C)/C=C/[C@@H](C)[C@H]1CCC(=O)[C@]23CC(=O)C4=CC(=O)CC[C@]4(C)[C@H]2CC[C@]13C [DANKASTERONE A] | 4.60 | 5.18 | 5.42 | < 4.40 | 4.92 | inactive | 
CC(C)[C@@H](C)/C=C/[C@@H](C)[C@H]1CC[C@]2(O)C3=CC(=O)[C@@H]4[C@@]5(O)CC[C@]4(C)[C@]3(CC[C@]12C)OC5=O |  |  |  |  |  | inactive | 
CC(C)[C@@H](C)/C=C/[C@@H](C)[C@H]1CCC(=O)[C@]23CC(=O)[C@@H]4CC(=O)CC[C@]4(C)[C@H]2CC[C@]13C |  |  |  |  |  | inactive | 
CC(C)[C@@H](C)/C=C/[C@@H](C)[C@H]1CC[C@]2(O)C3=CC(=O)C4=CC(=O)CC[C@]4(C)[C@@]3(O)CC[C@]12C | 4.51 | 5.12 | 5.06 | 4.52 | 4.72 | inactive | 
COC(=O)[C@@]12CC[C@@]3(C)[C@]1(O)C(=O)C=C1[C@@]4(O)CC[C@H]([C@H](C)/C=C/[C@H](C)C(C)C)[C@@]4(C)CC[C@@]13OO2 | < 4.40 | < 4.40 | 4.49 | < 4.40 | < 4.40 | inactive | 
CO[C@@H]1C=C2[C@@H]3CC[C@H]([C@H](C)/C=C/[C@H](C)C(C)C)[C@@]3(C)C[C@H]3O[C@@]23[C@@]2(C)CC[C@H](O)C[C@]12O | 4.74 | 6.40 | 5.21 | 4.85 | 4.62 | inactive | viability at 10 µM (SU-DHL-2 [4]): 26.9%; viability at 2 µM (SU-DHL-2 [5]): 78.2%; Activity (SU-DHL-2 [6]): 15%; Activity (SU-DHL-2 [7]): 0.87%; Activity (SU-DHL-2 [8]): 14.3%; Activity (SU-DHL-2 [9]): 6.67%; Activity (SU-DHL-2 [10]): 4.02%; Activity (SU-DHL-2 [11]): 54%
CC(C)[C@@H](C)/C=C/[C@@H](C)[C@H]1CC(=O)C2=C3[C@H](O)[C@H]4O[C@]45C[C@@H](O)CC[C@]5(C)[C@H]3CC[C@@]21C |  |  |  |  |  | inactive | 
C=C(CC[C@@H](C(=O)O)[C@H]1CC[C@H]2C3=C[C@@H](O)[C@@]45O[C@@H]4C(=O)C=C[C@]5(C)[C@H]3CC[C@]12C)C(C)C | < 4.40 | 5.16 | 5.14 | 4.89 | 4.62 | inactive | 
CC(C)[C@@H](C)/C=C/[C@@H](C)[C@H]1C[C@@H](O)C2=C3C=CC4=CC(=O)CC[C@]4(C)[C@@]3(O)CC[C@@]21C | < 4.40 | < 4.40 | < 4.40 | < 4.40 | < 4.40 |  | pIC50 (B-cell line): 5.07
COC(=O)[C@@]12CC[C@@]3(C)[C@]1(O)C(=O)C=C1[C@]4(O)CC[C@H]([C@H](C)/C=C/[C@H](C)C(C)C)[C@@]4(C)CC[C@@]13OO2 | < 4.40 | < 4.40 | < 4.40 | < 4.40 | < 4.40 | inactive | 
CC(C)[C@@H](C)/C=C/[C@@H](C)[C@H]1CC[C@@]2(O)C3=CC(=O)C4=CC(=O)CC[C@]4(C)[C@@]3(O)CC[C@]12C |  |  |  |  |  | inactive | 
